Our source for the melting point values is patent publication US20080317858A1, “FORMULATIONS OF N-(2-ACETYL-4,6-DIMETHYLPHENYL)-3--2-THIOPHENECARBOXAMIDE” (priority 2007, published 2008).

`CC(=O)c1cc(C)cc(C)c1NC(=O)c1sccc1S(=O)(=O)Nc1onc(C)c1C` [N-(2-acetyl-4,6-dimethylphenyl)-3-{[(3,4 dimethyl-5-isoxazolyl)amino]sulfonyl}-2-thiophenecarboxamide] gave a melting point of 158 to 160 °C.
